From patent US20100247448A1, “NOVEL LANTHANIDE LIGANDS AND COMPLEXES, AND USE THEREOF AS CONTRAST AGENTS” (COMMISSARIAT A L'ENERGIE ATOMIQUE, priority 2006, published 2010)
Values joined by “and” are separate entries in the source; they are usually repeats but may differ in a detail not shown here. Equal values may be shown once. Read-outs that look alike come from different tables or passages of the source. Blank lines part the entries; values can stand above or below the compound they belong to.

How the values were obtained:
[1] = cited from earlier work; for Log βGdL (log KGdL): literature
[2] = cited from earlier work; for logβCaL: literature
[3] = literature; cited from earlier work
[4] = Stability constant of the Gd complex by direct titration of 1:1 metal:ligand; pGd; type: physicochemical; conditions: for Log βGdL (log KGdL): present work, 1:1 metal:H3bpatcn 5.10^−4 M, pH 2.5 to 8.5
Text: (§1) The stability constants of the complexes of H3bpatcn of Gd^III and of […] have been calculated by direct titration of a mixture of 1:1 metal:H3bpatcn (5.10^−4 M) in a pH range between 2.5 and 8.5.
(§2) The titration data may be represented by the following equations:
Gd^3++bpatcn^3−⇄[Gd(bpatcn)] log KGdL=15.8(2);

[5] = Stability constant of the Ca complex by direct titration of 1:1 metal:ligand; pCa; type: physicochemical; conditions: for logβCaL (log KCaL): present work, 1:1 metal:H3bpatcn 5.10^−4 M, pH 2.5 to 8.5
Text: as §1, §2
Ca^2++bpatcn^3−⇄[Ca(bpatcn)]^− log KCaL=8.18(7)

[6] = De-protonation constants (pKa) by potentiometric titration; type: physicochemical; conditions: 0.1 M KCl, 298 K
Text: Both following equivalents protonate the carboxylate moieties associated with the pyridines (pKa2=2.3(2), pKa3=3.71(3).
The protonation curve and the structural data match a simultaneous partial protonation of the three nitrogens of the macrocycle as observed for the ligand H3nota, followed by the protonation of the carboxylate moieties. The protonation of the third amine and of the nitrogens of the pyridines takes place at lower pH and the related pKa has not been determined.

[7] = Absorption and luminescence (excitation, molar absorption, lifetime, quantal throughput); type: physicochemical; conditions: for molar absorption coefficient: band at ˜36500 cm^−1; for ΦD2O (quantal throughput): in D2O; for ΦH2O (quantal throughput): in H2O; for τD2O (luminescence lifetime): in deuterized water; for τH2O (luminescence lifetime): in water; for emission quantal throughput F: relative to [Tb(dpa)3]^3−, buffer solution Tris 0.1M, 15% experimental error
Text: The absorption spectra of bpatcn^3− and its complexes of Eu^III and Tb^III show an intense band at ˜36500 cm^−1 with a molar absorption coefficient of 9050 for Eu and of 9100 for Tb. These bands have been attributed to a combination of π-->π* and n-->π* centred transitions of the ligand.
FIGS. 3a and 3b show respectively the emission spectra of the solutions of the europium and terbium complexes at pH=7.4 (obtained after excitation at 273 nm) and the usual and typical transitions ^5D0-->^7FJ and ^5D4-->^7FJ (J=0-6) of the ions Eu^3+ and Tb^3+.
The emission quantal throughput of the complex of [Tb(bpatcn)(H2O)]
The long life time of the luminescence observed for the terbium complex in water (1.5 ms), excludes the presence of a de-energizing process including the energy return of the metal in its energized state towards the ligand.
Chem. Int. Ed. Engl., 1987, 26, 1266; G. Mathis, Clin. Chem., 1993, 39, 195

[8] = gadolinium complexes; cited from earlier work
[9] = pH 7.4, [M]total=1 μM, [bpatcn]total=10 μM
[10] = commercial contrast agent, comparison

Compound: O=C(O)CN(CCN(CC(=O)O)Cc1ccccn1)Cc1ccccn1 [N,N′-bis(2-pyridinylmethyl)ethylenediamine-N,N′-diacetate]
contribution of the 2-pyridylmethyl to stability of the Gd^III complex ([1]; estimated): 2.6 log units

Compound: O=C(O)CN(CCN(CC(=O)O)Cc1cccc(C(=O)O)n1)Cc1cccc(C(=O)O)n1 [H4bpdea, N,N′-bis[(6-carboxypyridin-2-yl)methyl]-ethylene diamine-N,N′-diacetic (H4bpeda) acid]
logβCaL [2]: 9.4(1)
Log βGdL (log KGdL) [1]: 15.1(3)
pKa (fourth listed) [3]: 2.9(1)
pKa (highest, first listed) [3]: 8.5(1)
pKa (second listed) [3]: 5.2(2)
pKa (third listed) [3]: 3.5(1)

Compound: O=C(O)CN1CCN(CC(=O)O)CCN(CC(=O)O)CC1 [H3nota, 1,4,7-triazacyclononane-N,N′,NN″-triacetic (H3nota) acid]
logβCaL [2]: 8.92
Log βGdL (log KGdL) [1]: 13.7
pKa (highest, first listed) [3]: 11.3(1)
pKa (second listed) [3]: 5.6
pKa (third listed) [3]: 2.88(2)

Log βGdL (log KGdL) [4]: 15.8(2)
Compound: O=C([O-])CN1CCN(Cc2cccc(C(=O)[O-])n2)CCN(Cc2cccc(C(=O)[O-])n2)CC1.[Gd+3] [[Gd(bpatcn)]]

pCa (−log [M]free) [5, 9]: 6.30
logβCaL (log KCaL) [5]: 8.18(7)
pKa4 ([6]; macrocycle nitrogen): 5.42(3)
pKa5 ([6]; macrocycle nitrogen): 10.5(2)
pKa2 ([6]; picolinate carboxylate): 2.3(2)
pKa3 ([6]; picolinate carboxylate): 3.7(3) and 3.71(3)
pKa1 ([6]; protonation of the carboxylate moiety): 2.2(2)
increase in stability of the gadolinium complex (relative to nota complex) ([4]; due to two pyridyl nitrogen donors): 2.1 log units
pGd (−log [M]free) [4, 9]: 13.6
Log βGdL (log KGdL) [4]: 15.8(2)
ε [7]: 7850 M⁻¹ cm⁻¹
λexc [7]: 272 nm
Compound: O=C(O)CN1CCN(Cc2cccc(C(=O)O)n2)CCN(Cc2cccc(C(=O)O)n2)CC1 [H3bpatcn]

Compound: O=C(O)CN(CC(=O)O)CC(=O)O [H3nta, nitrilotriethanoic acid]
Log βGdL (log KGdL) [1]: 11.4
pKa (highest, first listed) [3]: 9.75
pKa (second listed) [3]: 2.64
pKa (third listed) [3]: 1.57

Compound: CNC(=O)CN(CCN(CCN(CC(=O)[O-])CC(=O)NC)CC(=O)[O-])CC(=O)[O-].[Gd+3] [[Gd(dtpa-bma)(H2O)]^−]
pCa [2, 10]: 6.39
pGd [1, 10]: 15.8
Log βGdL (log KGdL) [1]: 1.85

Compound: O=C(O)CN(CCN(CC(=O)O)CC(=O)O)CC(=O)O [H4edta]
logβCaL [2]: 10.5
Log βGdL (log KGdL) [1]: 17.4
pKa (fourth listed) [3]: 2.60
pKa (highest, first listed) [3]: 10.19
pKa (second listed) [3]: 6.13
pKa (third listed) [3]: 2.69

ε [7]: 9100 M⁻¹ cm⁻¹
λexc [7]: 273 nm
quantal throughput value Φ ([7]; as stated in text before the table): 48%
molar absorption coefficient [7]: 9100 M⁻¹ cm⁻¹
ΦD2O (quantal throughput) [7]: 0.48
ΦH2O (quantal throughput) [7]: 0.43
τD2O (luminescence lifetime) [7]: 2.46 (7) ms
τH2O (luminescence lifetime) [7]: 1.5 ms and 1.49 (2) ms
emission quantal throughput F [7]: 43%
Compound: O=C([O-])CN1CCN(Cc2cccc(C(=O)[O-])n2)CCN(Cc2cccc(C(=O)[O-])n2)CC1.[Tb+3] [Tb (bpatcn)]

Compound: O=C([O-])c1cccc(CN2CCN(Cc3cccc(C(=O)[O-])n3)CCN(Cc3cccc(C(=O)[O-])n3)CC2)n1.[Gd+3] [[Gd(tpatcn)]]
zero-field spin electronic relaxation [8]: approx. 1500 ps

logβCaL (log KCaL) [5]: 8.18(7)
Compound: O=C(O)CN1CCN(Cc2cccc(C(=O)[O-])n2)CCN(Cc2cccc(C(=O)[O-])n2)CC1.[Ca+2] [[Ca(bpatcn)]^−]

Compound: O=C(O)CN1CCN(CC(=O)O)CCN(CC(=O)O)CCN(CC(=O)O)CC1 (Gd complex, metal not drawn) [dota, 1,4,7,10-tetraazacyclododecane-N,N′,N″,N′″-tetra-acetic (H4dota) acid]
zero-field spin electronic relaxation [8]: 650 ps

ε [7]: 9050 M⁻¹ cm⁻¹
λexc [7]: 273 nm
molar absorption coefficient [7]: 9050 M⁻¹ cm⁻¹
ΦD2O (quantal throughput) [7]: 0.12
ΦH2O (quantal throughput) [7]: 0.05
τD2O (luminescence lifetime) [7]: 1.67 (4) ms
τH2O (luminescence lifetime) [7]: 0.542 (4) ms
emission quantal throughput F [7]: 5%
Compound: O=C([O-])CN1CCN(Cc2cccc(C(=O)[O-])n2)CCN(Cc2cccc(C(=O)[O-])n2)CC1.[Eu+3] [Eu (bpatcn)]

Compound: O=C(O)c1cccc(CN(Cc2cccc(C(=O)O)n2)Cc2cccc(C(=O)O)n2)n1 [H3tpaa, α, α′, α″ nitrilotri(6-methyl-2-pyridinecarboxylic) acid]
logβCaL [2]: 8.5(2)
Log βGdL (log KGdL) [1]: 10.2(2)
pKa (highest, first listed) [3]: 4.11(6)
pKa (second listed) [3]: 3.3(1)
pKa (third listed) [3]: 2.5(2)

Compound: C1CNCCNCCN1 [1,4,7-triazacyclononane]
pKa (highest, first listed) [3]: 10.42
pKa (second listed) [3]: 6.82
